Measurements reported in ChEMBL document CHEMBL1201862, “PubChem BioAssay data set” (2004).
Activity calls are given as the source filed them.

How the values were obtained:
[1] = tested on: Streptococcus sp. 'group A'; assay: growth inhibition of control SK(-) GAS strain, dose response, counter-screen for streptokinase expression inhibitor project, luminescence, kanamycin, BacTiterGlo, confirmation (AID 1900); assay type: functional, organism-based
Streptococcus = assay: Group A Streptococcus viability loss, dose response, counter-screen for streptokinase expression inhibitor project, luminescence, BacTiterGlo (AID 1915); assay type: functional, organism-based;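 note: potency for reduction of bacterial viability or growth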
Streptokinase A = target: T1, Streptokinase A (Streptococcus pyogenes serotype M1, UniProt P10520); assay: S. pyogenes streptokinase expression inhibitors, potency, dose response, plasminogen activation absorbance, OD405 (AID 1914); assay type: functional, Streptococcus pyogenes M1 GAS;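 note: secreted streptokinase activity via plasminogen activation per viability signal from cell pellet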
T1 sequence (P10520 whole entry): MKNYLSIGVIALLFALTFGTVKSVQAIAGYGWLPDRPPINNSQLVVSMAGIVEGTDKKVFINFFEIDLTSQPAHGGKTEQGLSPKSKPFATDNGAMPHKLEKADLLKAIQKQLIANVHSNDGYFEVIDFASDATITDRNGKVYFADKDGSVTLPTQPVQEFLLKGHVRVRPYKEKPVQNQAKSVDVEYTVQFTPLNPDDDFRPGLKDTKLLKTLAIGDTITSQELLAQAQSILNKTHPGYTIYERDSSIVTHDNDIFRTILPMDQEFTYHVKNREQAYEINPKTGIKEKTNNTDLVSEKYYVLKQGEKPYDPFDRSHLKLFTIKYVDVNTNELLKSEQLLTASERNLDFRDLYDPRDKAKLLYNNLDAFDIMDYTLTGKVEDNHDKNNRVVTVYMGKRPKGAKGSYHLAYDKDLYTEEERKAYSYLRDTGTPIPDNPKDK

[2] = target: FAD-linked sulfhydryl oxidase ALR (Homo sapiens, UniProt P55789); assay: inhibitors of human ALR sulfhydryl oxidase, dose response, biochemical, H2O2 detection, luminescence, cherry-pick (AID 493248)
Chain of FAD-linked sulfhydryl oxidase ALR (P55789 whole entry): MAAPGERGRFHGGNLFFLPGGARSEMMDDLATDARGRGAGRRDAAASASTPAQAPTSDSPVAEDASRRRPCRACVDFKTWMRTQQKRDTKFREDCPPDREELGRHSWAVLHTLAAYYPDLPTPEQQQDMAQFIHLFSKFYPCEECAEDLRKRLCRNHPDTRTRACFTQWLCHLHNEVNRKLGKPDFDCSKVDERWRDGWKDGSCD

[3] = inhibitors of intracellular T. cruzi replication, confirmation, NIH3T3 host cells, beta-gal luminescence (AID 2044); assay type: functional, cell-based;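 note: intracellular parasites grown in NIH/3T3 mouse fibroblasts as host cells; luminescent beta-galactosidase reporter signal from transgenic T. cruzi replicating inside host cells; inhibitors lower the luminescence signal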
[4] = cytotoxicity toward NIH3T3 fibroblasts, dose response, counter-screen, cell-based, ATP luminescence, mouse fibroblasts (AID 2010); assay type: functional;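 note: cells exposed to compound for about 90 hours before reading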
H9c2 = assay: cells; assay type: functional, cell-based; settings: Rattus norvegicus, H9c2, Myocardium
INS1 = assay: beta cell apoptosis inhibitors, cytokine rescue, dose response, luminescence, retest (AID 449756); assay type: functional, cell-based; settings: Rattus norvegicus;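 note: cell death triggered by IL-1 beta plus TNF-alpha plus IFN-gamma mixture; protective hits raise ATP signal compared with cytokine alone wells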
[5] = target: T2, Rac GTPase-activating protein 1 (Homo sapiens, UniProt Q9H0H5); assay: MgcRacGAP GTPase-activating activity inhibitors, confirmation, biochemical, ADP Hunter fluorescence, primary and confirmatory (AID 624330); assay type: functional
T2 sequence (Q9H0H5 whole entry): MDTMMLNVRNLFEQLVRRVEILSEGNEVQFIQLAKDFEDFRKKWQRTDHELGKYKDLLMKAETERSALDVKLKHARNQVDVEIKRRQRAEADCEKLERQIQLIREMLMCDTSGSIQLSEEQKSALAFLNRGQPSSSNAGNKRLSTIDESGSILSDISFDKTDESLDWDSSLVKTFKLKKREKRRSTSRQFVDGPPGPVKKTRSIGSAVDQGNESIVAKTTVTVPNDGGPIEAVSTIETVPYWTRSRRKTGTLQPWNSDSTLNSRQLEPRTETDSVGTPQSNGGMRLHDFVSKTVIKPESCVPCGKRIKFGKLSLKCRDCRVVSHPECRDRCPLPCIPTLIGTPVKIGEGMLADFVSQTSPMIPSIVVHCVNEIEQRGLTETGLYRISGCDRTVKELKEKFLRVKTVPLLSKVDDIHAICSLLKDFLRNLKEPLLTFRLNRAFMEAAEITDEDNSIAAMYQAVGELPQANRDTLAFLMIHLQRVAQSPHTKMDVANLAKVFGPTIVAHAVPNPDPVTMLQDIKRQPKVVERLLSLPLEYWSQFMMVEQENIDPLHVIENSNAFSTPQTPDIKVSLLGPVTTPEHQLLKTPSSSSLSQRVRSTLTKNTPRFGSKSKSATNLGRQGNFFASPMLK

[6] = Luminescence Cell-Based Dose Retest to Confirm Inhibitors of Cancer Stem Cells. [Related pubchem assays (depositor defined):AID2717, AID2721]; assay type: functional; settings: Homo sapiens

## Cc1ccc2ccc(C(Nc3ccccn3)c3ccccc3)c(O)c2n1 (centres undefined)
[1]
  EC50: 1.52 µM (active)
Streptococcus
  EC50: 63.5 µM (active)
Streptokinase A
  EC50: > 150 µM (not active)

## COc1ccccc1N1CCN(CCc2nnc(S)n2-c2ccccc2)CC1
[2]
  AC50: 2.88 µM (active)

## COc1ccc(C2CC(c3ccccc3)=NN2C(=O)COC(=O)c2nc3nc(C)cc(C)n3n2)cc1 (centres undefined)
[3]
  EC50: 3.19 µM (active)
[4]
  EC50: > 60 µM (not active)

## Cc1sc2nc(SCC(=O)NCc3ccco3)nc(O)c2c1C
H9c2
  IC50: > 79 µM (inactive)

## Cc1ccc(/C=C2\C(=O)NC(=O)N(Cc3ccccc3Cl)C2=O)o1
[2]
  AC50: 0.494 µM (active)

## CCOC(=O)c1c(NC(=O)C[n+]2ccc(N(C)C)cc2)sc(C)c1C
[3]
  EC50: 1.44 µM (active)
[4]
  EC50: > 60 µM (not active)

## CC(c1nnc(S)n1-c1ccc(F)cc1)N1CCCCC1 (centres undefined)
[2]
  AC50: 5.03 µM (active)

## CN1/C(=C\C(=O)c2ccco2)C(C)(C)c2ccccc21
INS1
  AC50: 6.55 µM (active)

## COc1ccc(OC)c(CCNC(=O)C(=O)Nc2ccc3nc4n(c(=O)c3c2)CCCCC4)c1
[1]
  EC50: 4.97 µM (active)
Streptococcus
  EC50: 18.3 µM (active)
Streptokinase A
  EC50: 16.6 µM (active)

## COCCCN1C(=O)/C(=C/c2ccc(CNS(=O)(=O)c3ccccc3)o2)C(C(=O)OC)=C1C
[1]
  EC50: 28.9 µM (active)
Streptococcus
  EC50: > 150 µM (not active)
Streptokinase A
  EC50: > 150 µM (not active)

## O=C(CCc1nc(O)c2ccccc2n1)NCCN1C(=O)S/C(=C\c2ccc(OC(F)F)cc2)C1=O
H9c2
  IC50: > 79 µM (inactive)

## Cc1csc2nc(COC(=O)c3ccc(Cl)c([N+](=O)[O-])c3)cc(=O)n12
H9c2
  IC50: > 79 µM (inactive)

## C[C@H](CO)N1C[C@H](C)[C@@H](CN(C)C(=O)Nc2ccc3c(c2)OCO3)Oc2c(NC(=O)Nc3ccc(C(F)(F)F)cc3)cccc2C1=O
H9c2
  IC50: 21.3 µM (active)

## Cc1ccccc1OCC(=O)NNC(=O)Cn1[nH]c(=O)c2ccccc2c1=O
H9c2
  IC50: > 79 µM (inactive)

## COc1cccc(-c2cc3nc(C)c(C)c(N4CCN(C(=O)c5ccoc5)CC4)n3n2)c1
H9c2
  IC50: > 79 µM (inactive)

## Cn1c(/C=N/NC(=O)c2ccccc2)nc2ccccc21
H9c2
  IC50: 13.5 µM (active)

## O=C(N/N=C/c1cccc(O)c1)c1cc(-c2ccc3c(c2)OCO3)[nH]n1
H9c2
  IC50: > 79 µM (inactive)

## CNC(=S)N/N=C/c1ccc(N2CCOCC2)s1
[5]
  IC50: 28.3 µM (active)
[3]
  EC50: > 60 µM (not active)
[4]
  EC50: > 60 µM (not active)

## CCN(CC)c1ccc(/C=N/NC(=O)CCC(=O)NCc2ccccc2)c(O)c1
[1]
  EC50: 3.22 µM (active)
Streptococcus
  EC50: 4.53 µM (active)
INS1
  AC50: 1.7 µM (active)
[6]
  AC50: 5.66 µM (active)

## Nc1ccc(Cl)cc1/C(=N/O)c1ccccc1
[2]
  AC50: 22.8 µM (active)

## CC(=N\Nc1ccccc1)/C(=N/O)C(=O)Nc1ccccc1
[2]
  AC50: 2.49 µM (active)
